According to article PMC8911927, “Synthesis and Biological Evaluation of 1-(2-(6-Methoxynaphthalen-2-yl)-6-methylnicotinoyl)-4-Substituted Semicarbazides/Thiosemicarbazides as Anti-Tumor Nur77 Modulators” (Molecules, 2022):

Key:
[1] = tested on: HeLa cells; assay: MTT cytotoxicity, HeLa; format: cell-based, human; conditions: 72 h, mean values
Experimental: (§1) All of the cell lines were obtained from the American Type Culture Collection (ATCC, Manassas, VA, USA) and grown in DMEM or RPMI culture medium containing 10% fetal bovine serum (v/v) in 5% CO2 at 37 °C.
(§2) Confluent cells in good state were cultured in 96-well plates (5–10 × 10^4 cells/mL). After cells were attached to the plate, compounds with various concentrations were applied at 37 °C for 72 h. Then, the cells were incubated with 10 μL of 5 mg/mL MTT reagent at 37 °C for 4 h. The supernatant was removed, and the cells were dissolved in 100 μL dimethyl sulfoxide and shaken for 5 min. Finally, the light absorption (OD) of the dissolved cells was measured at […].

[2] = tested on: HGC-27 cells; assay: MTT cytotoxicity, HGC-27; format: cell-based, human; conditions: 72 h, mean values
Experimental: as §1, §2

[3] = tested on: MCF-7 cells; assay: MTT cytotoxicity, MCF-7; format: cell-based, human; conditions: 72 h, mean values
Experimental: as §1, §2

[4] = tested on: HepG2 cells; assay: MTT cytotoxicity, HepG2; format: cell-based; conditions: read-out: Cancer Cells IC50, HepG2
Experimental: (§3) All of the cell lines were obtained from the American Type Culture Collection (ATCC, Manassas, VA, USA) and grown in DMEM or RPMI culture medium containing 10% fetal bovine serum (v/v) in 5% CO2 at 37 °C. Confluent cells in good state were cultured in 96-well plates (5–10 × 10^4 cells/mL). After cells were attached to the plate, compounds with various concentrations were applied at 37 °C for 72 h. […] The supernatant was removed, and the cells were dissolved in 100 μL dimethyl sulfoxide and shaken for 5 min.

[5] = tested on: A549 cells; assay: MTT cytotoxicity, A549; format: cell-based; conditions: read-out: Cancer Cells IC50, A549
Experimental: as §3

[6] = tested on: MDA-MB231 cells; assay: MTT cytotoxicity, MDA-MB231; format: cell-based; conditions: read-out: Cancer Cells IC50, MDA-MB231
Experimental: as §3

[7] = tested on: H460 cells; assay: MTT cytotoxicity, H460; format: cell-based; conditions: read-out: Cancer Cells IC50, H460
Experimental: as §3

[8] = tested on: A875 cells; assay: MTT cytotoxicity, A875; format: cell-based; conditions: read-out: Cancer Cells IC50, A875
Experimental: as §3

[9] = tested on: MRC-5 cells; assay: MTT cytotoxicity, MRC-5 normal cells; format: cell-based
Experimental: as §3

[10] = tested on: LO2 cells; assay: MTT cytotoxicity, LO2 normal cells; format: cell-based
Experimental: as §3

[11] = tested on: HGC-27 cells; assay: Colony formation assay; format: cell-based, human; conditions: treatment for two weeks, 5 μM and 10 μM, dose-dependent
Experimental: HGC-27 cells were cultured in a six-well plate (500 cells/well) and treated with 9u and 9h in 10% serum medium for two weeks, then fixed with methanol at room temperature and stained with 0.1% crystal violet, and images were scanned with a scanner.

[12] = tested on: HGC-27 cells; assay: Flow cytometry cell cycle assay; format: cell-based, human; design: dose or concentration left out as unconfirmed; conditions: 8 h of treatment
Experimental: Flow cytometry analysis was applied for cell cycle detection. Firstly, HGC-27 cell was adjusted to 1 × 10^6/mL, inoculated into a six-well plate and placed in an incubator at 37 °C containing 5% CO2 saturated humidity overnight. After the cells were fully attached to the plate, […] 9u and 9h were administrated to the cells for 8 h. After cells were collected and fixed with 70% ethanol, DAPI was applied to stain the cells at the final concentration of 1 μg/mL; subsequently, on-board testing by flow cytometry (Cytoflex S (Beckman Coulter, Brea, CA, USA)) was conducted.

[13] = tested on: cleaved PARP; assay: Western blot of cleaved PARP; format: cell-based, human; conditions: HGC-27 cells, different times and concentrations, 24 h
Experimental: (§4) Equal amounts of the lysates were electrophoresed on 10% SDS-PAGE gel and transferred onto PVDF membranes. After blocked with 5% nonfat milk in TBST (50 mM Tris-HCl (pH 7.4), 150 mM NaCl and 0.1% Tween 20) for 1 h, the membranes were incubated with various primary antibodies overnight and secondary antibodies for 3 h, finally detected using an ECL system. The blots were captured with ChemiDoc XRS+System (Bio-Rad, Hercules, CA, USA).

[14] = tested on: Nur77; assay: Western blot of Nur77 expression; format: cell-based, human; conditions: HGC-27 cells, concentration gradient
Experimental: as §4

[15] = molecular target: T1, Nur77 (Homo sapiens, UniProt P22736); assay: Nur77 localization by nuclear-cytosol fractionation and immunofluorescence; format: cell-based; conditions: HGC-27 cells, 3 h, 10 µM for immunofluorescence
T1 construct: endogenous in cells; host or cells: HGC-27
T1 sequence (P22736 whole entry): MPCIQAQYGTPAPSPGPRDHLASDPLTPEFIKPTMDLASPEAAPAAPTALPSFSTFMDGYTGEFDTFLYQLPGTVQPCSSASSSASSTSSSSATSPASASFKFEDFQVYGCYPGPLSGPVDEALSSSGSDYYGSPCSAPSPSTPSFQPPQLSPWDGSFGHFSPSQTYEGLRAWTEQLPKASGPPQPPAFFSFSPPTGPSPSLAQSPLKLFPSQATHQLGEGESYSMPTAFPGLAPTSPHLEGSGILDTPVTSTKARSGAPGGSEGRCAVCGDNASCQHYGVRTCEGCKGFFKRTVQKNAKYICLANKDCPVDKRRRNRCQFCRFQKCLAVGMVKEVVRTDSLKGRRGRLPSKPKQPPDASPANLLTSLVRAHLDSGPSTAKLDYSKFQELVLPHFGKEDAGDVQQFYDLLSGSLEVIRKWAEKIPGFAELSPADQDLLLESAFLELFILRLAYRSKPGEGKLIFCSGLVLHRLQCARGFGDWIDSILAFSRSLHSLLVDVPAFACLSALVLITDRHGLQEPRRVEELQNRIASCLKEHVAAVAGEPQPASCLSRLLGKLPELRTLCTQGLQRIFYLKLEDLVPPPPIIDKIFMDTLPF
Experimental: Cells in the logarithmic phase of growth were seeded in 6-cm dishes; after, apposition cells were treated with compound 9h for 3 h. The medium was discarded and washed twice with pre-chilled PBS, then the cells were scraped off with a cytoscraper and collected into 1.5 mL centrifuge tubes and centrifuged at 1500 rpm for 3 min. Next, 80 μL of Buffer B (containing 100× protease inhibitor) were added for 20 min in an ice bath, followed by 20 μL of Buffer B containing 1% TritonX-100. The mixture was vortexed for 10 s, centrifuged at 10,000× g for 15 min at 4 °C, the supernatant collected as cytoplasmic proteins and the precipitate as the nuclear fraction. Then, 100 μL of Buffer C containing 0.4% TritonX-100 were added and centrifuged for 15 min at 4 °C, and 100 uL of Buffer C containing 0.4% TritonX-100 were added and vortexed for 30 min at 4 °C, centrifuged at 15,000× g for 15 min at 4 °C, and the supernatant was the nucleus protein.
The cells were inoculated into the culture dish with preplaced treated coverslips, and the coverslips were removed when the cells were close to growing into a monolayer. Then, they were washed twice with PBS and 4% paraformaldehyde was used to fix the cells for 30 min. The cells were permeabilized with 1‰ TritonX-100 for 10 min. […] One drop of blocker containing DAPI dye was added and the slice sealed and this was examined by fluorescence microscopy.

Question: How did the IC50 [1] turn out when “4-(2-Chlorophenyl)-1-(2-(6-methoxynaphthalen-2-yl)-6-methylnicotinoyl)semicarbazide [Compound 9h]” was run?
Answer: 4.12 ± 0.08 µM

Question: What about the IC50 [2] of the same substance?
Answer: 1.4 ± 0.11 µM

Question: What about the IC50 [3] of the same substance?
Answer: 3.3 ± 0.21 µM

Question: And the IC50 [4]?
Answer: 5.1 ± 0.01 µM

Question: What about the IC50 [5] of the same substance?
Answer: 7.3 ± 0.21 µM

Question: What about the IC50 [6] of the same substance?
Answer: 4.3 ± 0.33 µM

Question: What about the IC50 [7] of the same substance?
Answer: 9.2 ± 0.24 µM

Question: And the IC50 [8]?
Answer: > 50 µM

Question: And the IC50 [9]?
Answer: > 50 µM

Question: What about the IC50 [10] of the same substance?
Answer: > 50 µM

Question: What about the “Colony formation of HGC-27 cells” value [11] of the same substance?
Answer: completely inhibited colony formation

Question: What about the “Effect on cell cycle” value [12] of the same substance?
Answer: induced cell cycle blockage in G2-M phase

Question: What about the PARP cleavage [13] of the same substance?
Answer: induce the PARP cleavage in a dose-dependent and time-dependent manner

Question: And the Nur77 expression [14]?
Answer: induced Nur77 expression

Question: And the Nur77 nuclear export [15]?
Answer: significantly induced Nur77 nuclear export
